From patent EP4635500A1, “THERAPEUTIC AGENT FOR BACTERIAL INFECTION” (Sumitomo Pharma Co., Ltd., priority 2022, dated 2024)
In brackets after ≈: the same amount, converted by molar mass. Read-outs that look alike come from different tables or passages of the source.

Tested on: Enterobacterales
Assay: MIC, broth microdilution, CDC/FDA Antibiotic Resistance Isolate Bank (Example 7, Tables 8, 11, 12)
Assay type: cell-based

SMILES: CN(C)c1cc(NC(=O)CNC(C)(C)C)c(O)c2c1C[C@H]1C[C@H]3[C@H](N(C)C)C(=O)C(C(N)=O)=C(O)[C@@]3(O)C(=O)C1=C2O [Tigecyeline]
- MIC (Klebsiella pneumoniae, KUB No. 5576, AR Bank # 79): 0.5 µg/mL (≈ 0.854 µM)
- MIC (Klebsiella pneumoniae, KUB No. 5577, AR Bank # 80): 0.25 µg/mL (≈ 0.427 µM)
- MIC (Klebsiella pneumoniae, KUB No. 5584, AR Bank # 87): 2 µg/mL (≈ 3.41 µM)
- MIC (Klebsiella pneumoniae, KUB No. 5594, AR Bank # 97): 1 µg/mL (≈ 1.71 µM)
- MIC (Klebsiella pneumoniae, KUB No. 5595, AR Bank # 98): 0.5 µg/mL (≈ 0.854 µM)
- MIC (Klebsiella pneumoniae, KUB No. 5603, AR Bank # 106): 2 µg/mL (≈ 3.41 µM)
- MIC (Klebsiella pneumoniae, KUB No. 5604, AR Bank # 107): 0.25 µg/mL (≈ 0.427 µM)
- MIC (Klebsiella pneumoniae, KUB No. 5606, AR Bank # 109): 1 µg/mL (≈ 1.71 µM)
- MIC (Klebsiella pneumoniae, KUB No. 5609, AR Bank # 112): 0.5 µg/mL (≈ 0.854 µM)
- MIC (Klebsiella pneumoniae, KUB No. 5610, AR Bank # 113): 0.5 µg/mL (≈ 0.854 µM)
- MIC (Klebsiella pneumoniae, KUB No. 5612, AR Bank # 115): 2 µg/mL (≈ 3.41 µM)
- MIC (Klebsiella pneumoniae, KUB No. 5614, AR Bank # 117): 0.5 µg/mL (≈ 0.854 µM)
- MIC (Klebsiella pneumoniae, KUB No. 5617, AR Bank # 120): 0.5 µg/mL (≈ 0.854 µM)
- MIC (Klebsiella pneumoniae, KUB No. 5622, AR Bank # 125): 1 µg/mL (≈ 1.71 µM)
- MIC (Klebsiella pneumoniae, KUB No. 5623, AR Bank # 126): 0.5 µg/mL (≈ 0.854 µM)
- MIC (Klebsiella pneumoniae, KUB No. 5626, AR Bank # 129): 1 µg/mL (≈ 1.71 µM)
- MIC (Klebsiella pneumoniae, KUB No. 5632, AR Bank # 135): 1 µg/mL (≈ 1.71 µM)
- MIC (Klebsiella pneumoniae, KUB No. 5635, AR Bank # 138): 2 µg/mL (≈ 3.41 µM)
- MIC (Klebsiella pneumoniae, KUB No. 5636, AR Bank # 139): 0.5 µg/mL (≈ 0.854 µM)
- MIC (Klebsiella pneumoniae, KUB No. 5637, AR Bank # 140): 1 µg/mL (≈ 1.71 µM)
- MIC (Klebsiella pneumoniae, KUB No. 5638, AR Bank # 141): 1 µg/mL (≈ 1.71 µM)
- MIC (Klebsiella pneumoniae, KUB No. 5639, AR Bank # 142): 1 µg/mL (≈ 1.71 µM)
- MIC (Klebsiella pneumoniae, KUB No. 5640, AR Bank # 143): 2 µg/mL (≈ 3.41 µM)
- MIC (Klebsiella pneumoniae, KUB No. 5642, AR Bank # 145): 0.5 µg/mL (≈ 0.854 µM)
- MIC (Klebsiella pneumoniae, KUB No. 5643, AR Bank # 146): 1 µg/mL (≈ 1.71 µM)
- MIC (Klebsiella pneumoniae, KUB No. 5645, AR Bank # 148): 1 µg/mL (≈ 1.71 µM)
- MIC (Klebsiella pneumoniae, KUB No. 5649, AR Bank # 152): 2 µg/mL (≈ 3.41 µM)
- MIC (Klebsiella pneumoniae, KUB No. 5650, AR Bank # 153): 1 µg/mL (≈ 1.71 µM)
- MIC (Klebsiella pneumoniae, KUB No. 5655, AR Bank # 158): 1 µg/mL (≈ 1.71 µM)
- MIC (Klebsiella pneumoniae, KUB No. 5657, AR Bank # 160): 0.5 µg/mL (≈ 0.854 µM)
- MIC (Klebsiella pneumoniae, Klebsiella pneumoniae KUB No. 5784, AR Bank #438): 1 µg/mL (≈ 1.71 µM)
- MIC (Klebsiella pneumoniae, Klebsiella pneumoniae KUB No. 5797, AR Bank #453): 1 µg/mL (≈ 1.71 µM)
- MIC (Klebsiella pneumoniae, Klebsiella pneumoniae KUB No. 5809, AR Bank #504): 1 µg/mL (≈ 1.71 µM)
- MIC (Klebsiella pneumoniae, Klebsiella pneumoniae KUB No. 5810, AR Bank #505): 0.5 µg/mL (≈ 0.854 µM)
- MIC (Klebsiella pneumoniae, Klebsiella pneumoniae KUB No. 5811, AR Bank #506): 2 µg/mL (≈ 3.41 µM)
- MIC (Klebsiella pneumoniae, Klebsiella pneumoniae KUB No. 5812, AR Bank #507): 2 µg/mL (≈ 3.41 µM)
- MIC (Klebsiella pneumoniae, Klebsiella pneumoniae KUB No. 5827, AR Bank #522): 1 µg/mL (≈ 1.71 µM)
- MIC (Klebsiella pneumoniae, Klebsiella pneumoniae KUB No. 5828, AR Bank #523): 1 µg/mL (≈ 1.71 µM)
- MIC (Klebsiella pneumoniae, Klebsiella pneumoniae KUB No. 5829, AR Bank #524): 1 µg/mL (≈ 1.71 µM)
- MIC (Klebsiella pneumoniae, Klebsiella pneumoniae KUB No. 5830, AR Bank #525): 1 µg/mL (≈ 1.71 µM)
- MIC (Kluyvera ascorbata, KUB No. 5641, AR Bank # 144, read-out: MIC): 2 µg/mL (≈ 3.41 µM)
- MIC (Morganella morganii, KUB No. 5554, AR Bank# 57): 0.5 µg/mL (≈ 0.854 µM)
- MIC (Morganella morganii, KUB No. 5630, AR Bank # 133, read-out: MIC): 4 µg/mL (≈ 6.83 µM)
- MIC (Proteus mirabilis, KUB No. 5556, AR Bank# 59): 1 µg/mL (≈ 1.71 µM)
- MIC (Proteus mirabilis, KUB No. 5652, AR Bank # 155): 2 µg/mL (≈ 3.41 µM)
- MIC (Proteus mirabilis, KUB No. 5653, AR Bank # 156): 1 µg/mL (≈ 1.71 µM)
- MIC (Proteus mirabilis, KUB No. 5656, AR Bank # 159): 2 µg/mL (≈ 3.41 µM)
- MIC (Providencia rettgeri, KUB No. 5579, AR Bank # 82): 2 µg/mL (≈ 3.41 µM)
- MIC (Raoultella ornithinolvtica, KUB No. 5631, AR Bank # 134, read-out: MIC): 0.25 µg/mL (≈ 0.427 µM)
- MIC (Salmonella enterica, Salmonella Senftenberg, KUB No. 5624, AR Bank # 127, read-out: MIC): 0.5 µg/mL (≈ 0.854 µM)
- MIC (Serratia marcescens, KUB No. 5588, AR Bank # 91): 0.5 µg/mL (≈ 0.854 µM)
- MIC (Serratia marcescens, KUB No. 5596, AR Bank # 99): 1 µg/mL (≈ 1.71 µM)
- MIC (Serratia marcescens, KUB No. 5618, AR Bank # 121): 1 µg/mL (≈ 1.71 µM)
- MIC (Serratia marcescens, KUB No. 5619, AR Bank # 122): 1 µg/mL (≈ 1.71 µM)
- MIC (Serratia marcescens, KUB No. 5620, AR Bank # 123): 1 µg/mL (≈ 1.71 µM)
- MIC (Serratia marcescens, KUB No. 5621, AR Bank # 124): 1 µg/mL (≈ 1.71 µM)
- MIC (Serratia marcescens, KUB No. 5627, AR Bank # 130): 1 µg/mL (≈ 1.71 µM)
- MIC (Serratia marcescens, KUB No. 5628, AR Bank # 131): 1 µg/mL (≈ 1.71 µM)
- MIC (Serratia marcescens, Serratia marcescens KUB No. 5825, AR Bank #520): 1 µg/mL (≈ 1.71 µM)
- MIC (Serratia marcescens, Serratia marcescens KUB No. 5826, AR Bank #521): 2 µg/mL (≈ 3.41 µM)
